How the values were obtained:
MCF7 = assay: cells; details: Homo sapiens, MCF7, 72 h
Description: Cytotoxicity against human MCF7 cells assessed as reduction in cell viability after 72 hrs by MTT assay

PC-3 = assay: cells; details: Homo sapiens, PC-3, 72 h
Description: Cytotoxicity against human PC3 cells assessed as reduction in cell viability after 72 hrs by MTT assay

HepG2 = assay: cells; details: Homo sapiens, HepG2, 72 h
Description: Cytotoxicity against human HepG2 cells assessed as reduction in cell viability after 72 hrs by MTT assay

A549 = assay: cells; details: Homo sapiens, A549, 72 h
Description: Cytotoxicity against human A549 cells assessed as reduction in cell viability after 72 hrs by MTT assay

[1] = molecular target: Hepatocyte growth factor receptor (Homo sapiens, UniProt P08581); assay: Inhibition of c-MET (unknown origin) using FAM-labeled peptide as substrate preincubated for 10 mins followed by substrate addition by mobility shift assay
Hepatocyte growth factor receptor, sequence (P08581 whole entry): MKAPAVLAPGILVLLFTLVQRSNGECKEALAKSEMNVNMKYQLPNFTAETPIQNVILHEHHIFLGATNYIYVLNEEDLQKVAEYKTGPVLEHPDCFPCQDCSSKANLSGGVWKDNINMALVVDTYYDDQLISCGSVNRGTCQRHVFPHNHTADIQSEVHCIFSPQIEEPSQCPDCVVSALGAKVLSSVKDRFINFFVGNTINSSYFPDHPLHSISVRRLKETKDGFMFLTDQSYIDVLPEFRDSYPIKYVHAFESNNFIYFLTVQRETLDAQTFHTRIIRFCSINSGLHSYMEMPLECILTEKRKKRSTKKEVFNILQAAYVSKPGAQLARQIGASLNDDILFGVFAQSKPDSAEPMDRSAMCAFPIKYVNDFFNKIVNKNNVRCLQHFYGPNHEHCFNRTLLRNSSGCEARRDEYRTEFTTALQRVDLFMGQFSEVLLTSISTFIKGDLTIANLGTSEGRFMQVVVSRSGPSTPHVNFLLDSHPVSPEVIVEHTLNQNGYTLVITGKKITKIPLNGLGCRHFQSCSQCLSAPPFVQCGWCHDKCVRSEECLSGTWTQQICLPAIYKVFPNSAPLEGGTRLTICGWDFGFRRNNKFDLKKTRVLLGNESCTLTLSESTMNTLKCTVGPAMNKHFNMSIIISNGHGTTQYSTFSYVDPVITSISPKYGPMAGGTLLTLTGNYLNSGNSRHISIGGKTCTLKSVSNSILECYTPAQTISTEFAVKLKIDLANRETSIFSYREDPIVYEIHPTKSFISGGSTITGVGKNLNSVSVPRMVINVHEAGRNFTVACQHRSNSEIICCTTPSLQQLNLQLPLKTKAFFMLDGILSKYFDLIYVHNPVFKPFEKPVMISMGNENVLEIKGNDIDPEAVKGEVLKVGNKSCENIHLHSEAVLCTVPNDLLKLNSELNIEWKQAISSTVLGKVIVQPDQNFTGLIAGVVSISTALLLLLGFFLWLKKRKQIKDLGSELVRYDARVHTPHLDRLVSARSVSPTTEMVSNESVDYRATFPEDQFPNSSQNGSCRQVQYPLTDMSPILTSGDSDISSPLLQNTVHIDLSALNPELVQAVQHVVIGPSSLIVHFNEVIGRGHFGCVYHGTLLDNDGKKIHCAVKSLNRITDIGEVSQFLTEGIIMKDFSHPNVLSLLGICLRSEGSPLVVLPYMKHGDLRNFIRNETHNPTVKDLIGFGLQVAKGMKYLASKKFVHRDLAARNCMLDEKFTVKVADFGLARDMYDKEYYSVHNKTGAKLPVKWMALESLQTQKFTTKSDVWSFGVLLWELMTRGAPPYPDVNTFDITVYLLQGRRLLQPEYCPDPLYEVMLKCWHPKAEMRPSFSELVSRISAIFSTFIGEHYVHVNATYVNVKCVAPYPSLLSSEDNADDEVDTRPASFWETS

Compound	IC50 (MCF7)	IC50 (PC-3)	IC50 (HepG2)	IC50 (A549)	IC50 [1]
Cc1cc(=O)n(-c2ccc(Br)cc2F)nc1C(=O)Nc1ccc(Oc2ncnc3c2ccn3C)c(F)c1	> 60 µM	6.67 µM	> 60 µM	14.4 µM	
Cc1cc(=O)n(-c2ccccc2OC(F)(F)F)nc1C(=O)Nc1ccc(Oc2ncnc3c2ccn3C)cc1	27 µM	5.16 µM	> 60 µM	25.2 µM	
Cn1ccc2c(Oc3ccc(NC(=O)c4nn(-c5ccc(Cl)c(C(F)(F)F)c5)ccc4=O)cc3F)ccnc21	18.4 µM	20.9 µM	13.5 µM	17.7 µM	
Cc1cc(=O)n(-c2cccc(F)c2)nc1C(=O)Nc1ccc(Oc2ncnc3c2ccn3C)c(F)c1	> 60 µM	8.99 µM	> 60 µM	> 60 µM	
Cn1ccc2c(Oc3ccc(NC(=O)c4nn(-c5ccc(Cl)cc5)ccc4=O)cc3)ccnc21	> 60 µM	> 60 µM	> 60 µM	> 60 µM	
COc1ccc(-n2ccc(=O)c(C(=O)Nc3ccc(Oc4ccnc5c4ccn5C)c(F)c3)n2)cc1	> 60 µM	> 60 µM	> 60 µM	> 60 µM	
Cn1ccc2c(Oc3ccc(NC(=O)c4nn(-c5ccc(Cl)c(F)c5)ccc4=O)cc3F)ccnc21	16.6 µM	17.9 µM	22.1 µM	> 60 µM	
Cn1ccc2c(Oc3ccc(NC(=O)c4nn(-c5ccc(Br)cc5F)ccc4=O)cc3)ccnc21	19.8 µM	20.5 µM	31.2 µM	35.7 µM	
O=C(Nc1ccc(Oc2ccnc3[nH]ccc23)c(F)c1)c1nn(-c2ccc(Cl)cc2)ccc1=O	> 60 µM	42.5 µM	> 60 µM	> 60 µM	
Cc1cc(=O)n(-c2ccccc2C(F)(F)F)nc1C(=O)Nc1ccc(Oc2ncnc3c2ccn3C)c(F)c1	> 60 µM	25.9 µM	> 60 µM	35.4 µM	
Cn1ccc2c(Oc3ccc(NC(=O)c4nn(-c5ccccc5)ccc4=O)cc3F)ccnc21	> 60 µM	> 60 µM	> 60 µM	> 60 µM	
O=C(Nc1ccc(Oc2ccnc3[nH]ccc23)c(F)c1)c1nn(-c2ccccc2)ccc1=O	34.9 µM	38.6 µM	24.9 µM	56.8 µM	
Cc1cc(=O)n(-c2ccc(Br)cc2F)nc1C(=O)Nc1ccc(Oc2ncnc3c2ccn3C)cc1	27.7 µM	18.8 µM	33.6 µM	47.3 µM	
Cc1cc(=O)n(-c2ccc(Br)cc2F)nc1C(=O)Nc1ccc(Oc2ncnc3[nH]ccc23)c(F)c1	26.6 µM	13.3 µM	32 µM	6.12 µM	
Cn1ccc2c(Oc3ccc(NC(=O)c4nn(-c5ccc(Cl)cc5)ccc4=O)cc3F)ccnc21	> 60 µM	> 60 µM	> 60 µM	> 60 µM	
COc1ccc(-n2ccc(=O)c(C(=O)Nc3ccc(Oc4ccnc5[nH]ccc45)c(F)c3)n2)cc1	55.4 µM	46.4 µM	> 60 µM	> 60 µM	
O=C(Nc1ccc(Oc2ccnc3[nH]ccc23)cc1)c1nn(-c2ccc(Br)cc2F)ccc1=O	17.9 µM	12.8 µM	46.4 µM	26.1 µM	

Compound	IC50 (MCF7)	IC50 (PC-3)	IC50 (HepG2)	IC50 (A549)	IC50 [1]
Cc1cc(=O)n(-c2ccccc2Cl)nc1C(=O)Nc1ccc(Oc2ncnc3c2ccn3C)c(F)c1	> 60 µM	> 60 µM	> 60 µM	> 60 µM	
COc1ccc(-n2ccc(=O)c(C(=O)Nc3ccc(Oc4ccnc5c4ccn5C)cc3)n2)cc1	> 60 µM	> 60 µM	> 60 µM	> 60 µM	
Cc1cc(=O)n(-c2cccc(F)c2)nc1C(=O)Nc1ccc(Oc2ncnc3[nH]ccc23)c(F)c1	32 µM	6.68 µM	23.1 µM	31.4 µM	
Cn1ccc2c(Oc3ccc(NC(=O)c4nn(-c5ccccc5)ccc4=O)cc3)ccnc21	45.1 µM	58.2 µM	56.2 µM	51.7 µM	
Cn1ccc2c(Oc3ccc(NC(=O)c4nn(-c5ccc(Br)cc5)ccc4=O)cc3F)ccnc21	33.6 µM	> 60 µM	> 60 µM	> 60 µM	
Cc1ccc(-n2nc(C(=O)Nc3ccc(Oc4ncnc5[nH]ccc45)c(F)c3)c(C)cc2=O)cc1	18.9 µM	20.4 µM	18.8 µM	18.5 µM	
Cc1cc(=O)n(-c2ccccc2OC(F)(F)F)nc1C(=O)Nc1ccc(Oc2ncnc3[nH]ccc23)cc1	32 µM	22.5 µM	22.8 µM	16.2 µM	
Cn1ccc2c(Oc3ccc(NC(=O)c4nn(-c5ccc(Br)cc5)ccc4=O)cc3)ccnc21	16.2 µM	23 µM	39.2 µM	59.4 µM	
Cn1ccc2c(Oc3ccc(NC(=O)c4nn(-c5ccc(Cl)c(F)c5)ccc4=O)cc3)ccnc21	16.8 µM	32.7 µM	> 60 µM	> 60 µM	
Cc1ccc(-n2nc(C(=O)Nc3ccc(Oc4ncnc5c4ccn5C)c(F)c3)c(C)cc2=O)cc1	> 60 µM	50.5 µM	> 60 µM	> 60 µM	
Cc1cc(=O)n(-c2ccc(F)cc2)nc1C(=O)Nc1ccc(Oc2ncnc3[nH]ccc23)c(F)c1	24.5 µM	17.3 µM	12.8 µM	42.4 µM	
O=C(Nc1ccc(Oc2ccnc3[nH]ccc23)c(F)c1)c1nn(-c2ccc(Br)cc2F)ccc1=O	23.5 µM	8.8 µM	56.5 µM	55.7 µM	
Cc1cc(=O)n(-c2ccccc2OC(F)(F)F)nc1C(=O)Nc1ccc(Oc2ncnc3c2ccn3C)c(F)c1	> 60 µM	> 60 µM	> 60 µM	> 60 µM	
Cc1cc(=O)n(-c2cccc(F)c2)nc1C(=O)Nc1ccc(Oc2ncnc3c2ccn3C)cc1	30.8 µM	> 60 µM	> 60 µM	23.4 µM	
COc1ccc(-n2ccc(=O)c(C(=O)Nc3ccc(Oc4ccnc5[nH]ccc45)cc3)n2)cc1	21.6 µM	> 60 µM	50.8 µM	53.1 µM	
O=C(Nc1ccc(Oc2ccnc3[nH]ccc23)cc1)c1nn(-c2ccccc2)ccc1=O	15.6 µM	15 µM	17.8 µM	10.5 µM	

Now those with a lower IC50 (MCF7), led by results:

IC50 (MCF7)	IC50 (PC-3)	IC50 (HepG2)	IC50 (A549)	IC50 [1]	Compound
15.2 µM	10.3 µM	23.4 µM	11.4 µM		Cn1ccc2c(Oc3ccc(NC(=O)c4nn(-c5ccc(Cl)c(C(F)(F)F)c5)ccc4=O)cc3)ccnc21
14.1 µM	16.3 µM	23.9 µM	26.8 µM		Cn1ccc2c(Oc3ccc(NC(=O)c4nn(-c5ccc(Br)cc5F)ccc4=O)cc3F)ccnc21
11.8 µM	15.6 µM	26.3 µM	35.1 µM		Cc1cc(=O)n(-c2cccc(C(F)(F)F)c2)nc1C(=O)Nc1ccc(Oc2ncnc3[nH]ccc23)c(F)c1
11.7 µM	> 60 µM	> 60 µM	16.2 µM		Cc1cc(=O)n(-c2ccccc2OC(F)(F)F)nc1C(=O)Nc1ccc(Oc2ncnc3[nH]ccc23)c(F)c1
11.6 µM	5.5 µM	11.9 µM	13.4 µM		O=C(Nc1ccc(Oc2ccnc3[nH]ccc23)c(F)c1)c1nn(-c2ccc(Cl)c(C(F)(F)F)c2)ccc1=O
11.6 µM	40.8 µM	68 µM	> 60 µM		O=C(Nc1ccc(Oc2ccnc3[nH]ccc23)c(F)c1)c1nn(-c2ccc(Br)cc2)ccc1=O
11.6 µM	13.6 µM	9.61 µM	10.3 µM		O=C(Nc1ccc(Oc2ccnc3[nH]ccc23)c(F)c1)c1nn(-c2ccc(Cl)c(F)c2)ccc1=O
10.8 µM	> 60 µM	33.8 µM	> 60 µM		Cc1ccc(-n2nc(C(=O)Nc3ccc(Oc4ncnc5c4ccn5C)cc3)c(C)cc2=O)cc1
10.6 µM	32.4 µM	19.5 µM	25.1 µM		O=C(Nc1ccc(Oc2ccnc3[nH]ccc23)cc1)c1nn(-c2ccc(Cl)cc2)ccc1=O
9.67 µM	14.6 µM	3.18 µM	34.8 µM		Cc1cc(=O)n(-c2cccc(F)c2)nc1C(=O)Nc1ccc(Oc2ncnc3[nH]ccc23)cc1
7.89 µM	8.04 µM	4.28 µM	6.24 µM		O=C(Nc1ccc(Oc2ccnc3[nH]ccc23)cc1)c1nn(-c2ccc(Br)cc2)ccc1=O
7.84 µM	19.1 µM	27.2 µM	5.86 µM		Cc1cc(=O)n(-c2ccccc2C(F)(F)F)nc1C(=O)Nc1ccc(Oc2ncnc3c2ccn3C)cc1
4.8 µM	> 60 µM	> 60 µM	> 60 µM		Cc1cc(=O)n(-c2ccc(F)cc2)nc1C(=O)Nc1ccc(Oc2ncnc3[nH]ccc23)cc1
4.56 µM	3.46 µM	9.47 µM	7.57 µM		Cc1cc(=O)n(-c2cccc(C(F)(F)F)c2)nc1C(=O)Nc1ccc(Oc2ncnc3[nH]ccc23)cc1
4.13 µM	16.4 µM	11.2 µM	5.12 µM		Cc1cc(=O)n(-c2ccccc2Cl)nc1C(=O)Nc1ccc(Oc2ncnc3c2ccn3C)cc1
3.62 µM	9.61 µM	7.46 µM	6.4 µM	27 µM	Cc1ccc(-n2nc(C(=O)Nc3ccc(Oc4ncnc5[nH]ccc45)cc3)c(C)cc2=O)cc1
3.21 µM	2.73 µM	3.66 µM	3.77 µM	20.7 µM	Cc1cc(=O)n(-c2ccc(Br)cc2F)nc1C(=O)Nc1ccc(Oc2ncnc3[nH]ccc23)cc1
3.11 µM	7.78 µM	5.24 µM	2.58 µM	0.17 µM	O=C(Nc1ccc(Oc2ccnc3[nH]ccc23)cc1)c1nn(-c2ccc(Cl)c(F)c2)ccc1=O
